# Test results published in patent US20090286797A1, “Novel Quinoxaline Derivatives and Their Medical Use” (priority 2005, published 2009).
# Biological target: T1, human glutamate receptor GluR1-flip (Homo sapiens, UniProt P42261)
# T1 construct: expressed in transfected cells; host or cells: Chinese Hamster Ovary (CHO) cells
# Assay: Whole cell patch clamp on CHO cells expressing human GluR1-flip; glutamate-induced current desensitization
# Type: cell-based
# Conditions: 1 mM test compound co-applied with 10 mM L-glutamate after 30 seconds pre-incubation, hGluR1(i), whole cell voltage clamp
# Source text: In this experiment we investigated the influence of the test compounds on the membrane currents when determined electrophysiologically on Chinese Hamster Ovary (CHO) cells capable of expressing the human glutamate receptor GluR1-flip, obtained essentially as described by Fletcher E J & Lodge D, Pharmacol. Ther. 1996 70 (1) 65-89, the current through the channels being recorded using patch clamp technique in whole cell voltage clamp mode.
# Current responses were induced by applying L-glutamate at a saturating concentration of 10 mM, and the modulatory effect of the test compound was evaluated by co-applying the test compound and L-glutamate upon a 30 seconds pre-incubation period, and comparing with […].
# T1 sequence (P42261 19-906 isoform P42261-2 limits assumed): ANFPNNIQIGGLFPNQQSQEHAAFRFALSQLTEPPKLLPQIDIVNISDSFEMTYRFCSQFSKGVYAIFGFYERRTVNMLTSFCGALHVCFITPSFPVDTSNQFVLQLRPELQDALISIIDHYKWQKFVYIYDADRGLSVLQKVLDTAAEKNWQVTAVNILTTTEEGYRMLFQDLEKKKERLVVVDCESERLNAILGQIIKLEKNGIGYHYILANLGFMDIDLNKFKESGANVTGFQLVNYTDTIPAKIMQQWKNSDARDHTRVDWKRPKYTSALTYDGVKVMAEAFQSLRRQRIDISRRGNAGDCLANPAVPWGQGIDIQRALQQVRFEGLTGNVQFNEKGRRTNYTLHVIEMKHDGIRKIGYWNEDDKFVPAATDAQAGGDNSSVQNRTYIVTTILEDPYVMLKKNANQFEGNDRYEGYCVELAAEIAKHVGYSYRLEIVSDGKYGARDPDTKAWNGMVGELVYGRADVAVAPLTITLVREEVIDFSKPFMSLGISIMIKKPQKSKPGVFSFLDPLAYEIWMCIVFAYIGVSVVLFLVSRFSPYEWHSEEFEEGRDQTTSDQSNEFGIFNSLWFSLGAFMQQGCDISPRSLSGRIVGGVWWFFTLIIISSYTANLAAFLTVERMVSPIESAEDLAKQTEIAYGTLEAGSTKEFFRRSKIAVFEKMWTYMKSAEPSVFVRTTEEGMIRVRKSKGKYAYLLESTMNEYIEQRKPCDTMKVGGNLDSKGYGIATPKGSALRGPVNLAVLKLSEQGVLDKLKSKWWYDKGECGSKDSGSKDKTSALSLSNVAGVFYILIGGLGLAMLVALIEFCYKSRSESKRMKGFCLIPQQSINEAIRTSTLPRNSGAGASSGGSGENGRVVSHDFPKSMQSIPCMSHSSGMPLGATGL
row,SMILES,degree of desensitization
1,"CC1CCCN(C(=O)c2ccc3nccnc3c2)C1 (racemic) [Compound A4, (±)-(3-Methyl-piperidin-1-yl)-guinoxalin-6-yl-methanone]",95.2+/−0.2%
2,"O=C(c1ccc2nccnc2c1)N1CCCCC1 [Reference compound, Piperidin-1-yl-quinoxalin-6-yl-methanone]",98.0+/−0.8%
